Experimental data reported in PubChem BioAssay (NCI).
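Following 48 hours of exposure in 96-well plates, responses at five concentrations were used to interpolate endpoints linearly. GI50 = concentration required for 50% inhibition of growth. TGI: total growth inhibition.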

Assays:
Assay in all cases: NCI anticancer screen, dose series, 48 h
[1] = test system: NCI-H226 lung
[2] = test system: ACHN renal
[3] = test system: SK-MEL-2 melanoma
[4] = test system: DLD-1 colon
[5] = test system: M19-MEL melanoma
[6] = test system: UO-31 renal
[7] = test system: KM12 colon
[8] = test system: HCC-2998 colon
[9] = test system: SNB-75 CNS
[10] = test system: PC-3 prostate

SMILES	TGI [1] [µM]	TGI [2] [µM]	TGI [3] [µM]	TGI [4] [µM]	TGI [5] [µM]	TGI [6] [µM]	TGI [7] [µM]	TGI [8] [µM]	TGI [9] [µM]	TGI [10] [µM]	GI50 [1] [µM]	GI50 [2] [µM]	GI50 [3] [µM]	GI50 [4] [µM]	GI50 [6] [µM]	GI50 [7] [µM]	GI50 [8] [µM]	GI50 [9] [µM]	GI50 [10] [µM]
O=C(CCn1[nH]c(=O)c(Cl)c(Cl)c1=O)NNC(=O)C[n+]1ccccc1	> 100	> 100	> 100	> 100	> 100	> 100	> 100	> 100	> 100										
CC(C)(C)c1ccc(OCCOCCOc2ccc(C(C)(C)C)cc2S(=O)(=O)Nc2ccc([N+](=O)[O-])cc2)c(S(=O)(=O)Nc2ccc([N+](=O)[O-])cc2)c1	> 100	> 100	> 100	> 100	> 100	> 100	> 100	> 100	> 100										
O=C(CC(=O)c1cccc2ccccc12)C(=O)NC1C2CC3CC(C2)CC1C3 (stereo unspecified)	> 100	> 100		> 100	> 100	> 100	> 100	> 100											
CCc1cc(CCC(=O)Nc2ccccc2[N+](=O)[O-])[nH]c(=S)n1	> 100	> 100	> 100	> 100	> 100	> 100	> 100												
COc1ccc2c3c(c(C(=O)c4ccccc4)oc13)CCC2		> 100		> 100	> 100			> 100	> 100										
Cc1cccc(C(C)(C)C)c1NC(=O)CCc1nc(=S)[nH][nH]1	> 100	> 100	> 100	> 100	> 100	> 100	> 100	> 100	> 100										
Cn1c(N)nc(=O)c2c1N(C1OC(CO)C(O)C1O)CN2Cc1ccccc1 (stereo unspecified)	> 100	> 100	> 100	> 100	> 100	> 100	> 100	> 100	> 100										
CC1=C(/C=C/C(C)=C/C=C/C(C)=C/C(=O)O)C(C)(C)CCC1	72.6	75.9	48.8	> 100	> 100	> 74.7	60.2	66.8	> 100	> 100									
CC(=O)O[C@@]1(C)[C@@H](C)C(=O)O[C@@H]2CCN3CC=C(COC(=O)[C@]1(C)O)[C@H]23	> 100	> 100	> 100	> 100	> 100	> 100	> 100	> 100	> 100										
CC(=O)[CH-]C(=O)c1ccccc1.CC(=O)[CH-]C(=O)c1ccccc1.Cc1cc([O-])ccc1Cl.Cc1cc([O-])ccc1Cl.[Ti+4]	69.2	> 100	47	> 100		47.4	31.4	28.1	69.1		20.2	30.1	19.3	36.9	15.5	14.1	5.92	20.7	
CSc1snc2sc3c(Cl)nnnc3c12		23.3	27.7	22.7	24.1	25.6	30	21.2	23.7										
O=C(O/N=C1/CCC/C1=C\c1ccccc1)c1ccc(Cl)c(Cl)c1	> 100	> 100	> 100	> 100	> 100	> 100	> 100	> 100	> 100										
C=C1CC2CC(O)CC(C1)C2 (stereo unspecified)	> 100	> 100	> 100	> 100	> 100	> 100	> 100		> 100										
O=C1C2C(C(=O)N1c1ccccc1)C1([N+](=O)[O-])C=C3c4ccccc4N(C(=O)c4ccccc4)C32C2C(=O)N(c3ccccc3)C(=O)C21 (stereo unspecified)		> 100	> 100	> 100	> 100	> 100	> 100	> 100	> 100										
Nc1n[n+](-c2ccccc2)no1	> 100	> 100		> 100	> 100	> 100	> 100	> 100											
Cc1cccc2c1CCC21OC(=O)c2c1ccc1ccccc21 (stereo unspecified)	> 100	> 100	62.3	> 100	> 100	> 100	> 100	> 100	> 100										
CCOC(=O)c1cnc2c(ccc3ncccc32)c1NCCCN(CC)CC	> 100	> 100	> 100	> 100	> 100	> 100	> 100	> 100											
NC1=NN(c2ccccc2)C(=O)C1C(=O)C(=O)Nc1nccs1 (stereo unspecified)	> 100	> 100	> 100	> 100	> 100	> 100	> 100	> 100	> 100										
C/C=C(\CCOS(=O)(=O)c1ccc(C)cc1)[Si](C)(C)C		> 100	> 100	> 100	> 100	> 100	> 100	> 100	> 100										
CC1=C(O)/C(=C/C(C)CCC/C(C)=C/C=C/C(C)CCCc2ccoc2)OC1=O (stereo unspecified)	68.8	50.9	57.9	> 100	> 100	> 100	> 100	63	> 100										
N#CC1(C#N)C2C=CC(c3coc4cccc2c34)C1(C#N)C#N (stereo unspecified)	34.3	17	92.6	4.17	8.86	25.6	33.8	30	35.3										
O=C(N/N=C1\C(=O)N(c2nccs2)C(=O)C(=O)C1c1nc2ccccc2s1)c1ccccc1O (stereo unspecified)	> 100	> 100	> 100	> 100	> 100	35.4	> 100	> 100	> 100										
CCOC(=O)C(CC/C=C\c1ccccc1)N1CCC[C@H]1C(=O)OC (stereo partly specified)	> 100	> 100	> 100	> 100	> 100	> 100	> 100	> 100	> 100										
CCOC(=O)c1cnc2sc3ccc4ccccc4c3n2c1=O	> 100	> 100	> 100	> 100	> 100	94.6	> 100	> 100	> 100										
O=[N+]([O-])c1cc(C(F)(F)F)ccc1Sc1ccc(C(F)(F)F)cc1[N+](=O)[O-]	> 100	> 100	9.96			> 100	> 100	> 100	> 100	> 100	> 100	49.4	3.32		34.8	5.24	19.7	> 100	61.2
C=C(CO)[C@@H]1CC[C@]2(COC3CCCCO3)CC[C@]3(C)[C@H](CC[C@@H]4[C@@]5(C)C=C(C=O)C(=O)C(C)(C)[C@@H]5CC[C@]43C)[C@@H]12 (stereo partly specified)	1.47	0.488	1.82			0.433	1.94	0.838	0.625	0.973	0.538	0.21	0.448		0.187	0.555	0.286	0.206	0.237
